For 14 compounds, IC50 results are on record in US20250026753A1, “FUSED TRIAZINONE DERIVATIVES AND METHODS OF USING THE SAME” (Rgenta Therapeutics, Inc., priority 2021, published 2025).

Counter-ions that a name gives are not always drawn.

As usually defined, the IC50 is the concentration at which inhibition is half-maximal. A higher IC50 goes with a need for much substance.

Assay [1] relates to K562. Put plainly: Cell proliferation assay (CellTiterGlo, 72 hour incubation), K562. It is filed as cell-based. As to conditions: Homo sapiens, K562 cells, inhibition of cell proliferation, CellTiterGlo luminescence. The method, then:
(§1) Various cancer cell lines including K562 and COLO201, were treated with the compounds of the present disclosure to assess their effect on inhibiting cell proliferation.
(§2) For compound preparation, test compounds were diluted in duplicates from 10 mM stocks in 11-points 1:3 serial dilutions in DMSO. Then 125 nL test compounds at the serial dilutions were dispensed into 384-well assay plate using Echo dispenser. Staurosporine at 1 mM stock (5 μM final concentration) and DMSO (0.500 final concentration) were used as the positive and negative controls respectively.
(§3) To prepare cell lines, each frozen cell line stock was resuspended and grown in proper growth medium to a density of 40,000 cells/mL. Then 25 μL of cell suspension were dispensed into the assay plate to give seed cell density at 1,000 cells/well, compounds at 50 μM top concentration with 11-point serial dilutions, and 0.5% o DMSO final concentration. Assay plates were then centrifuged at 300 rpm for 1 minute and then incubated at 37° C., 9500 humidity, 500 CO2 for 72 hours. After the 72 hour incubation, the assay plate and its contents were equilibrated at room temperature for approximately 30 minutes. 25 μL of CellTiterGlo reagent was added to the assay plate and mixed for two minutes on an orbital shaker. Then after 10 minutes of incubation of assay plate at from temperature, the luminescence (RLU) signals in each well were recorded using Envision plate reader, then converted to percentage inhibition values using the signals in staurosporine and DMSO treated wells as the references. IC50 values were determined by curve fitting in Levenberg-Marquardt algorithm.

Assay [2] concerns COLO201. In words: Cell proliferation assay (CellTiterGlo, 72 hour incubation), COLO201. It is filed as cell-based. To be noted: Homo sapiens, COLO 201, COLO201 cells, inhibition of cell proliferation, CellTiterGlo luminescence. The protocol:
as §1, §2, §3

For the compound `Cc1cn2cc(-c3nc(=O)n4cc(N5CCNCC5)cc(F)c4n3)cc(F)c2n1` [Compound 110, 9-fluoro-2-(8-fluoro-2-methylimidazo[1,2-a]pyridin-6-yl)-7-(piperazin-1-yl)-4H-pyrido[1,2-a][1,3,5]triazin-4-one hydrochloride], the IC50 in assay [1] and in assay [2] was < 1 µM in each case.

Consider `Cc1cn2cc(-c3nc(=O)n4cc(C5=CCNCC5)ccc4n3)cc(F)c2n1` [Compound 111, 2-(8-fluoro-2-methylimidazo[1,2-a]pyridin-6-yl)-7-(1,2,3,6-tetrahydropyridin-4-yl)-4H-pyrido[1,2-a][1,3,5]triazin-4-one hydrochloride], for which the values for the IC50 in assay [1] and in assay [2] were 1 to 10 µM and < 1 µM, respectively.

For the compound `COc1cc(N2CCNCC2)cn2c(=O)nc(-c3cc(F)c4nc(C)cn4c3)nc12` [Compound 114, 2-(8-fluoro-2-methylimidazo[1,2-a]pyridin-6-yl)-9-methoxy-7-(piperazin-1-yl)-4H-pyrido[1,2-a][1,3,5]triazin-4-one hydrochloride], the IC50 in assay [1] and in assay [2] was 1 to 10 µM each time.

With `Cc1cn2cc(-c3nc(=O)n4cc(N5CCNCC5)c(C)cc4n3)cc(F)c2n1` [Compound 115, 2-(8-fluoro-2-methylimidazo[1,2-a]pyridin-6-yl)-8-methyl-7-(piperazin-1-yl)-4H-pyrido[1,2-a][1,3,5]triazin-4-one hydrochloride], the IC50 is < 1 µM in assay [1] and 1 to 10 µM in assay [2].

Regarding `Cc1cn2cc(-c3nc(=O)n4cc(N5CCN[C@@H](C)C5)cc(F)c4n3)cc(F)c2n1` [Compound 116, (S)-9-fluoro-2-(8-fluoro-2-methylimidazo[1,2-a]pyridine-6-yl)-7-(3-methylpiperazin-1-yl)-4H-pyrido[1,2-a][1,3,5]triazin-4-one], the IC50 in assay [1] and in assay [2] was < 1 µM in each case.

Take `Cc1cn2cc(-c3nc(=O)n4cc(N5CCN[C@@H](C)C5)cc(C)c4n3)cc(F)c2n1` [Compound 117, (S)-2-(8-fluoro-2-methylimidazo[1,2-a]pyridin-6-yl)-9-methyl-7-(3-methylpiperazin-1-yl)-4H-pyrido[1,2-a][1,3,5]triazin-4-one hydrochloride]: the IC50 in assay [1] and in assay [2] was < 1 µM in each case.

As for `Cc1cn2cc(-c3nc(=O)n4cc(N5CC6CCCC(C5)N6)ccc4n3)cc(F)c2n1` [Compound 118, 7-(3,9-diazabicyclo[3.3.1]nonan-3-yl)-2-(8-fluoro-2-methylimidazo[1,2-a]pyridin-6-yl)-4H-pyrido[1,2-a][1,3,5]triazin-4-one hydrochloride], the IC50 in assay [1] was < 1 µM; in assay [2], 1 to 10 µM.

As for `COc1cc2nc(-c3cc(F)c4nc(C)cn4c3)nc(=O)n2cc1N1CCNCC1` [Compound 119, 2-(8-fluoro-2-methylimidazo[1,2-a]pyridin-6-yl)-8-methoxy-7-(piperazin-1-yl)-4H-pyrido[1,2-a][1,3,5]triazin-4-one], the IC50 in assay [1] and in assay [2] was 1 to 10 µM throughout.

Take `COc1c(N2CCNCC2)ccc2nc(-c3cc(F)c4nc(C)cn4c3)nc(=O)n12` [Compound 120, 2-(8-fluoro-2-methylimidazo[1,2-a]pyridin-6-yl)-6-methoxy-7-(piperazin-1-yl)-4H-pyrido[1,2-a][1,3,5]triazin-4-one formic acid]: the half-inhibitory concentration (IC50) in assay [1] and in assay [2] was ≥ 10 µM each time.

`Cc1cn2cc(-c3nc(=O)n4cc(N5CCN[C@@H](C)C5)cc(F)c4n3)cc(C)c2n1` [Compound 121, (S)-2-(2,8-dimethylimidazo[1,2-a]pyridin-6-yl)-9-fluoro-7-(3-methylpiperazin-1-yl)-4H-pyrido[1,2-a][1,3,5]triazin-4-one hydrochloride]: the IC50 in assay [1] and in assay [2] was < 1 µM each time.

Turning to `Cc1cn2cc(-c3nc(=O)n4c(C)c(N5CCNCC5)ccc4n3)cc(F)c2n1` [Compound 122, 2-(8-fluoro-2-methylimidazo[1,2-a]pyridin-6-yl)-6-methyl-7-(piperazin-1-yl)-4H-pyrido[1,2-a][1,3,5]triazin-4-one hydrochloride], the IC50 in assay [1] was 1 to 10 µM; in assay [2], ≥ 10 µM.

For the compound `Cc1cn2cc(-c3nc(=O)n4cc(N5CC6(CNC6)C5)ccc4n3)cc(F)c2n1` [Compound 127, 7-2,6-diazaspiro[3.3]heptan-2-yl-2-8-fluoro-2-methylimidazo[1,2-a]pyridin-6-yl-4H-pyrido[1,2-a][1,3,5]triazin-4-one trifluoroacetic acid], the IC50 is 1 to 10 µM in assay [1] and ≥ 10 µM in assay [2].

`Cc1cc2cc(-c3nc(=O)n4cc(N5CCN[C@@H](C)C5)cc(F)c4n3)cc(C)n2n1` [Compound 131, 2-{2,7-dimethylpyrazolo[1,5-a]pyridin-5-yl}-9-fluoro-7-[(3S)-3-methylpiperazin-1-yl]-4H-pyrido[1,2-a][1,3,5]triazin-4-one]: the IC50 in assay [1] and in assay [2] was < 1 µM in each case.

In the case of `C[C@H]1CN(c2ccc3nc(-c4cc(F)c5nn(C)cc5c4)nc(=O)n3c2)CCN1` [Compound 133, (S)-2-(7-fluoro-2-methyl-2H-indazol-5-yl)-7-(3-methylpiperazin-1-yl)-4H-pyrido[1,2-a][1,3,5]triazin-4-one hydrochloride], the figures for the IC50 in assay [1] and in assay [2] were < 1 µM and 1 to 10 µM, respectively.
